According to US20030070184A1, “LIGANDS FOR DISCOIDIN DOMAIN RECEPTOR TYROSINE KINASES AND COMPLEXES THEREOF” (priority 1999, published 2003):
Values joined by “and” are separate entries in the source; they are usually repeats but may differ in a detail not shown here. Identical values can stand only once. “Also recorded” adds a separate entry of the source. Where a SMILES comes first, the peptide text is derived from it. [ ]: non-standard residue; d: D form. pY = N[C@@H](Cc1ccc(OP(=O)(O)O)cc1)C(=O)O

Columns and labels:
Shc PTB domain = target: T1, Shc PTB domain (Homo sapiens, UniProt P29353); experiment: Surface plasmon resonance competition: GST-Shc PTB domain binding to immobilized middle T antigen phosphopeptide; details: IC50, inhibition of binding of the Shc PTB domain to the middle T antigen phosphopeptide, BIAcore, soluble competing phosphopeptide
T1 construct: the PTB domain fusion construct comprises amino acids 1-225 of human p52 Shc; made in house; host or cells: E. coli
T1 sequence (P29353 1-225 isoform P29353-2): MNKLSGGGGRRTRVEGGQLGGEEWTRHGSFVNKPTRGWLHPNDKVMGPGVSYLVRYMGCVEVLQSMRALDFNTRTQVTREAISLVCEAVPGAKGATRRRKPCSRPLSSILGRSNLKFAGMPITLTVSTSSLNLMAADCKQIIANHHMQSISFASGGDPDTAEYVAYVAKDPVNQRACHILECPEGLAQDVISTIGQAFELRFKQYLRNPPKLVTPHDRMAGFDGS
Protocol: Surface plasmon resonance—experiments were done with a BIAcore instrument (Pharmacia). A phosphopeptide corresponding to the NPXY sequence in the polyomavirus middle T antigen (mT) (LSLLSNPTpYSVNSK) was absorbed to the surface of a biosensor chip. Binding of soluble GST-Shc PTB domain fusion protein to the mT peptide was measured in the presence or absence of competing soluble phosphopeptides based on the sequences around Tyr 513 of DDR1b or Tyr 490 of the NGFR (HIIENPQpYFSD) (21).
Experiments were done with a BIAcore instrument (Pharmacia). A phosphopeptide corresponding to the NPXY sequence in the polyomavirus middle T antigen (LSLLSNPTpYSVMRSK) was absorbed to the surface of a biosensor chip. Binding of soluble GST-Shc PTB domain fusion protein to the middle T peptide was measured in presence or absence of competing soluble phosphopeptides based on the sequences around tyrosine 513 of DDR1b (ALLLSNPApYRLLLA) or tyrosine 490 of the NGF receptor (HIIENPQpYFSD).

DDR1 = target: T2, DDR1 (Homo sapiens, UniProt Q08345); experiment: DDR1 tyrosine phosphorylation in transfected 293 cells (anti-phosphotyrosine Western blot); type: cell-based; details: 90 min; for ligand activity: induction of DDR1 (DDR1b) tyrosine phosphorylation: soluble agent added to medium of transfected 293 cells, 10 μg/ml
T2 construct: expressed in transfected cells; host or cells: human embryonic kidney 293 cells, CMV-based expression vector
Protocol: (§1) Semiconfluent 293 cells were transfected by calcium-phosphate precipitation with a cytomegalovirus-based expression vector. Sixteen hours later, cells were transferred to serum-free media for another 24 h. Cells were stimulated with 10 μg/ml collagen for 90 min and lysed with 1% Triton-X 100, 50 mM HEPES (pH 7.5), 150 mM NaCl, 1.5 mM MgCl2, 5 mM EGTA, 5 mM EDTA, 10% glycerol, 10 mM NaF, 1 mM phenylmethylsulfonyl fluoride (PMSF), 1 mM Na-orthovanadate, 10 μg/ml aprotinin. The cellular lysates were centrifuged 10 min at 4° C. and 13,000 rpm and aliquots of the supernatant were subjected to SDS-PAGE or further analyzed by immunoprecipitation with specific antibodies for 3 h at 4° C. on a rotating wheel. The immunocomplex was washed three times with 20 mM HEPES (pH 7.5), 150 mM NaCl, 0.1% Triton, 10% glycerol and analyzed by SDS-PAGE. Proteins were transferred to nitrocellulose membrane (Schleicher & Schuell) and immunoblotted with antibodies diluted 1:500 in 50 mM Tris (pH 7.5), 150 mM NaCl, 5 mM EDTA, 0.05% gelatin overnight. Western blots were developed using horseradish peroxidase-coupled secondary antibody (Biorad) and enhanced chemiluminescence (Amersham). For reprobing, the membrane was stripped in 70 mM Tris (pH 6.8), 2% SDS, 0.1% P-mercaptoethanol at 55° C. for 30 min. For in vitro kinase assays, immunoprecipitates were washed twice with in 40 mM HEPES (pH 7.5), 20 mM MgCl2, 2 mM MnCl2, 100 μM orthovanadate, 5 μM dATP and incubated with 5 μCi [γ-^32P] ATP at 30° C. for 20 min. The products of the kinase reaction were monitored by SDS-PAGE and autoradiography.
To identify possible sources for the ligand of DDR1, an in vivo screening system was established. Human embryonic kidney fibroblast 293 cells were transiently transfected with expression plasmids coding for DDR1b. Growth-arrested cells were then stimulated with various agents and monitored for receptor activation by anti-phosphotyrosine Western blotting of total cellular lysates. […] The increase of DDR1b autophosphorylation was dependent on the concentration of matrigel added to the cells (FIG. 7A).

DDR receptors = experiment: Effect of other agents on DDR activity / collagen-induced DDR tyrosine phosphorylation; type: cell-based; details: for effect on DDR activity: collagen-associated molecules
DDR2 = target: T3, DDR2 (Homo sapiens, UniProt Q16832); experiment: DDR2 tyrosine phosphorylation in transfected 293 cells (anti-phosphotyrosine Western blot); type: cell-based; details: 90 min; for ligand activity: induction of DDR2 tyrosine phosphorylation: soluble agent added to medium of transfected 293 cells, 10 μg/ml
T3 construct: expressed in transfected cells; host or cells: 293 cells, CMV-based expression vector
T3 sequence (Q16832 22-855): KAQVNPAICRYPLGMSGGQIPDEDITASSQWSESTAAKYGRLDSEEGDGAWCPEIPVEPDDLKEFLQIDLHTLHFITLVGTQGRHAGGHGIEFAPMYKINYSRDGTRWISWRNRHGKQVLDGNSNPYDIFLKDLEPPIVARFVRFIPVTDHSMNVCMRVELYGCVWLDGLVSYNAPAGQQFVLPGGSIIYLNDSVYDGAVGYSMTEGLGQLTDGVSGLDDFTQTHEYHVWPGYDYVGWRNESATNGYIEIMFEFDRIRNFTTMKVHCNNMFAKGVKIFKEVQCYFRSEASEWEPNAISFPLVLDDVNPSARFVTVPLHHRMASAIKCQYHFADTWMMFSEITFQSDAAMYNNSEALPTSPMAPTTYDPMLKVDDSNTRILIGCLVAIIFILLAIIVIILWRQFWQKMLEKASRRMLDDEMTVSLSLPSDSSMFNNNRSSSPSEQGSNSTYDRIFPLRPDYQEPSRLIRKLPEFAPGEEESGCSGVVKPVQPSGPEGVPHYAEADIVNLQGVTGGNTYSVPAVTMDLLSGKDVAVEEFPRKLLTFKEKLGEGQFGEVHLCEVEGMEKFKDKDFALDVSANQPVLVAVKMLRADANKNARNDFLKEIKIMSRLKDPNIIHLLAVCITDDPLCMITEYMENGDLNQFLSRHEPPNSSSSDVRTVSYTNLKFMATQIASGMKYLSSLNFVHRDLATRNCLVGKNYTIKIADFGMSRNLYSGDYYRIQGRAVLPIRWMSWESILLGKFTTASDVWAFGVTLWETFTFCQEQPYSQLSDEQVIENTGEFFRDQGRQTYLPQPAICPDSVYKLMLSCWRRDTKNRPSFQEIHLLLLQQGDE
Protocol: as §1

DDR1b = target: T4, DDR1b (Homo sapiens, UniProt Q08345); experiment: Tyrosine phosphorylation of endogenous DDR1b in carcinoma cells (T-47D; A431), immunoprecipitation and anti-phosphotyrosine blot; type: cell-based; details: T-47D, 90 min; collagens/gelatin 10 μg/ml, orthovanadate 1 mM
T4 construct: endogenous in cells; host or cells: T-47D human mammary carcinoma cells (A431 also named)
Text: To investigate the effects of collagen on cells that express endogenous DDR tyrosine kinases, the mammary carcinoma cell line T-47D was employed. Previous results have shown that DDR1 is highly expressed in human carcinoma cell lines, in particular, the breast cancer cell lines BT-20, MDA-MB-175 and T-47D (1) (Perez et al., 1996). […] The time course of endogenous DDR1b tyrosine phosphorylation in T-47D cells was even slower than in 293 cells, with maximal activation being achieved only after stimulation for 18 hours.
To further investigate the role of different types of collagen in the activation of DDR1 and DDR2, collagen types I, II, III and V purified from human placenta and collagen type II from bovine tracheal cartilage were obtained. To test their ability to induce receptor tyrosine phosphorylation, 293 cells overexpressing DDR1 or DDR2 were employed. […] The various types of collagen were also tested for their ability to stimulate tyrosine phosphorylation of endogenous DDR1b present in T-47D cells. For this purpose, DDR1b was immunoprecipitated from lysates of stimulated T-47D cells and analyzed by Western blotting with anti-phosphotyrosine antibodies. […] As previously shown, DDR1 tyrosine phosphorylation could also be activated by treating cells with 1 mM orthovanadate, an inhibitor of tyrosine phosphatases. Furthermore, gelatin which contains heat denatured collagen was tested for its capacity to induce DDR1b tyrosine phosphorylation.
Integrins of the type α1β1 and α2β1 have long been known to be receptors for collagen. Therefore, tests were conducted to determine if these integrins are somehow involved in the activation of DDR1b. The mammary carcinoma cell line T-47D, which endogenously expresses the b-isoform of DDR1, was used. Monoclonal antibodies directed against the extracellular domains of integrins can block binding to collagen and therefore signaling of integrins. T-47D cells were treated with antibody A2-IIE10 against α2-integrin and antibody DE9 against β1-integrin (both from Upstate Biotechnology) in the absence or presence of 10 μg/ml collagen type I overnight. DDR1b or Shc were immunoprecipitated from cellular lysates and analyzed by Western blotting with antiphosphotyrosine antibody.
DDR1b and DDR2 were transfected into 293 cells and were stimulated with 10 µg/ml mouse collagen type I for different periods of time. (FIG. 9A and FIG. 9B) Total cellular lysates were probed with antiphosphotyrosine antibody. Maximal activation is seen 90 min after stimulation of DDR1b (FIG. 9A) and DDR2 (FIG. 9B). (FIG. 9C) Human mammary carcinoma T-47D cells were cultivated on 10 cm dishes to confluence and starved in 0.5% serum overnight. Cells were stimulated with collagen type I for various periods of time and lysed. DDR1b was immunoprecipitated from the lysates and analyzed by Western blotting with antiphosphotyrosine antibody. Maximal phosphorylation of DDR1b is seen after stimulation for 18 h. An unidentified, tyrosine phosphorylated protein with an apparent molecular weight of 115 kDa is copurified in the immunoprecipitations. […] Prolonged stimulation with collagen increases the processing of DDR1b in T-47D cells, indicated by an additional 62 kDa band. (FIGS. 9E and 9F) DDR1b was immunoprecipitated from overexpressing 293 cells (E) and T-47D (FIG. 9F) cells and subjected to an in vitro kinase reaction. The incorporation of [^32P]-phosphate is monitored by SDS-PAGE followed by autoradiograpy.

[1] = transfected 293 cells plated on collagen-coated dishes

T4 sequence (Q08345 19-913): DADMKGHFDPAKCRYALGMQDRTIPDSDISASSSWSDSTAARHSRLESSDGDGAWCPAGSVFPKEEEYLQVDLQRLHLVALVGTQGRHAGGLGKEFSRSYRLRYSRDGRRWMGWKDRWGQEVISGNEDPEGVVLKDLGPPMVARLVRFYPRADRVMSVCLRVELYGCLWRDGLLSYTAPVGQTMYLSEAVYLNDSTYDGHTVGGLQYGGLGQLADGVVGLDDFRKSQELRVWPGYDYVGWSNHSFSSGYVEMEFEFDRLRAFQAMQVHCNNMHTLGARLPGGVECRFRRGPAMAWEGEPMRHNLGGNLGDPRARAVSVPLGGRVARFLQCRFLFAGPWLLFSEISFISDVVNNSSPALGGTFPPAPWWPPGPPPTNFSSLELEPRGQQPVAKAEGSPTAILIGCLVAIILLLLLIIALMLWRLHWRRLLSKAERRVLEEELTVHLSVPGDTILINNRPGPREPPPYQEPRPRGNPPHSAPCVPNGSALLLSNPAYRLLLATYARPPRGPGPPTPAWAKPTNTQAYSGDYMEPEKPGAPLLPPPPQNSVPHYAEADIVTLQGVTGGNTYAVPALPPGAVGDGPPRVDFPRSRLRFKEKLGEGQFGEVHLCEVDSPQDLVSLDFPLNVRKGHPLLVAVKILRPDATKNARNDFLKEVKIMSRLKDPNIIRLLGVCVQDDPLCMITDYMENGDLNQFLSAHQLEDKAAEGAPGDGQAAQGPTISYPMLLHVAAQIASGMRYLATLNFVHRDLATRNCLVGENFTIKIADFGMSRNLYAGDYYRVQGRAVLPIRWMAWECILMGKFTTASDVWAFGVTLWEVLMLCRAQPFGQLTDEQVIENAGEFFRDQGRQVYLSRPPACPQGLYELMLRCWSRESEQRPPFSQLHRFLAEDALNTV
T2 sequence (Q08345 19-913): as above

## CC[C@H](C)[C@H](NC(=O)[C@@H](NC(=O)[C@@H](N)Cc1c[nH]cn1)[C@@H](C)CC)C(=O)N[C@@H](CCC(=O)O)C(=O)N[C@@H](CC(N)=O)C(=O)N1CCC[C@H]1C(=O)N[C@@H](CCC(N)=O)C(=O)N[C@@H](Cc1ccc(OP(=O)(O)O)cc1)C(=O)N[C@@H](Cc1ccccc1)C(=O)N[C@@H](CO)C(=O)N[C@@H](CC(=O)O)C(=O)O [NGF receptor phosphopeptide, HIIENPQpYFSD] (H-HIIENPQ[pY]FSD-OH; N-terminus and C-terminus assumed)
Shc PTB domain
  IC50: ~100 nM and 70 nM

## fibronectin
DDR1
  ligand activity: induction of DDR1 (DDR1b) tyrosine phosphorylation: neither

## C[C@@H]1C[C@@H]([C@H](O)CC2CC(=O)NC(=O)C2)C(=O)[C@@H](C)C1 [cycloheximide, reference compound]
DDR receptors; treatment of cells, data not shown
  effect on ability of collagen to induce DDR tyrosine phosphorylation: not inhibited

## collagen type II: collagen type II from bovine tracheal cartilage
DDR2
  ligand activity: induction of DDR2 tyrosine phosphorylation: moderate activity
DDR1b
  tyrosine phosphorylation of endogenous DDR1b in T-47D cells: lower, but still detectable

## laminin
DDR1
  ligand activity: induction of DDR1 (DDR1b) tyrosine phosphorylation: neither

## collagen type III: collagen type III purified from human placenta
DDR1
  ligand activity: induction of DDR1 (DDR1b) tyrosine phosphorylation: equally good ligands
DDR1; [1]
  DDR1b tyrosine phosphorylation on immobilized collagen: further increased
DDR2
  ligand activity: induction of DDR2 tyrosine phosphorylation: highly potent ligands; also recorded: highly activated
DDR2; [1]
  DDR2 tyrosine phosphorylation on immobilized collagen: triggered
DDR1b
  tyrosine phosphorylation of endogenous DDR1b in T-47D cells: lower, but still detectable

## gelatin
DDR1b
  tyrosine phosphorylation of endogenous DDR1b in T-47D cells: did not induce an increase

## heparin
DDR receptors
  effect on DDR activity: no effect

## [O]=[V]([O-])([O-])[O-] [orthovanadate, reference compound]
DDR1b
  tyrosine phosphorylation of endogenous DDR1b in T-47D cells: activated

## chondroitin-sulphate A
DDR receptors
  effect on DDR activity: no effect
